Like-named read-outs stand apart in the source and are kept apart here. Blank lines part the entries; values can stand above or below the compound they belong to.
Assays:
Nav 1.7 = Nav 1.7 (Homo sapiens (Human), UniProt Q15858); assay: in-vitro Nav 1.7 PX data; type: cell-based
Nav 1.5 = Nav 1.5 (Homo sapiens (Human), UniProt Q14524); assay: in-vitro Nav 1.5 PX data; settings: read-out: Nav 1.5 PX IC50
Sequence of Nav 1.5 (Q14524 whole entry): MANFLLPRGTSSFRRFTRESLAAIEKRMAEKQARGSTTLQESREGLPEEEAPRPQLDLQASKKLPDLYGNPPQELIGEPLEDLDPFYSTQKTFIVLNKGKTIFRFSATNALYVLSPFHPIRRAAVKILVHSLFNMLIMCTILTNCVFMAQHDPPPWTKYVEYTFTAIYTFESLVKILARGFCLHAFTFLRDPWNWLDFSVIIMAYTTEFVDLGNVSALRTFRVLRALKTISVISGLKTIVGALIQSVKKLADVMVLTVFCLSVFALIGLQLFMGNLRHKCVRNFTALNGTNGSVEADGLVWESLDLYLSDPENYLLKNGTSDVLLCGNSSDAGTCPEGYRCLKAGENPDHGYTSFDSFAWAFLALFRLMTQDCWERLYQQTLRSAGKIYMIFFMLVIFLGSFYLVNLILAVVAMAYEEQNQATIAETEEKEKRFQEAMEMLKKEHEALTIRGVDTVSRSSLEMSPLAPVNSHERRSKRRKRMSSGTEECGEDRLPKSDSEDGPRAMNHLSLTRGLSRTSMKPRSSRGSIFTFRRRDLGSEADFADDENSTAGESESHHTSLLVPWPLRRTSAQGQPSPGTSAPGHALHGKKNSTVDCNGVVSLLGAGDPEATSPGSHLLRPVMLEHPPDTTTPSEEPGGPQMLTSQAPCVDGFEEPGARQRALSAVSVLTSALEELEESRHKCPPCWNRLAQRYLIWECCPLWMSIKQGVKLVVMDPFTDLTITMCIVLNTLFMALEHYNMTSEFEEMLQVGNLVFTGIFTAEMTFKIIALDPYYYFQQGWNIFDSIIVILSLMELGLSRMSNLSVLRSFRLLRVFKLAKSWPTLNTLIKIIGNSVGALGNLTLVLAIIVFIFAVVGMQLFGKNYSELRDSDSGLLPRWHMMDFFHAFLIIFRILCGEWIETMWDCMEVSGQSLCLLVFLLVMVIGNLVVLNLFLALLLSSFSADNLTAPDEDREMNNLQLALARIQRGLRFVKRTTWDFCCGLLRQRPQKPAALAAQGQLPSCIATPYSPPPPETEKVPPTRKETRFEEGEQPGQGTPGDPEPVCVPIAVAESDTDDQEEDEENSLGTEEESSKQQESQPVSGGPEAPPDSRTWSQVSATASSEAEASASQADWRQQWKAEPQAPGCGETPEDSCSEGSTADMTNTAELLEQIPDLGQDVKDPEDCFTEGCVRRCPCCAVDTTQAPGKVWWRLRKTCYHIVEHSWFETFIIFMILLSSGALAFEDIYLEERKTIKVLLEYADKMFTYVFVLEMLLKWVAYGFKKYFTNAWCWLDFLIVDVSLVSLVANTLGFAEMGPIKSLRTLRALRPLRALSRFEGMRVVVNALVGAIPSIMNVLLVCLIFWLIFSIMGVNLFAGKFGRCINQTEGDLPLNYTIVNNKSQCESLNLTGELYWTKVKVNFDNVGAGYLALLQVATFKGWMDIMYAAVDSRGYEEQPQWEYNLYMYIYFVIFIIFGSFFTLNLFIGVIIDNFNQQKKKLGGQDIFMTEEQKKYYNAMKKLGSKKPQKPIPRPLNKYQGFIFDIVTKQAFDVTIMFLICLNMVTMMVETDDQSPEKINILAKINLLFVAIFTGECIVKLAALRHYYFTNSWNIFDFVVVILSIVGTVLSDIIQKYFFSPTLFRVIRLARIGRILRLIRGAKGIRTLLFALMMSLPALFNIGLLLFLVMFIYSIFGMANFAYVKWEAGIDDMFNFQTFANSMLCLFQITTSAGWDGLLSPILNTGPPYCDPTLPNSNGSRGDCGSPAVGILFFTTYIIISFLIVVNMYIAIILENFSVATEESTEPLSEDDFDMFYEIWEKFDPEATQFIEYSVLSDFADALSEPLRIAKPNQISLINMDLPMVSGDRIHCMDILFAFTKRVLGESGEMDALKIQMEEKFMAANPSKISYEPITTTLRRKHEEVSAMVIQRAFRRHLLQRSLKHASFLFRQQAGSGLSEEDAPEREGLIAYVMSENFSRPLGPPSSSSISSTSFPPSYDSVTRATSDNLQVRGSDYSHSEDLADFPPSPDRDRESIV

Sequence of Nav 1.7 (Q15858 whole entry): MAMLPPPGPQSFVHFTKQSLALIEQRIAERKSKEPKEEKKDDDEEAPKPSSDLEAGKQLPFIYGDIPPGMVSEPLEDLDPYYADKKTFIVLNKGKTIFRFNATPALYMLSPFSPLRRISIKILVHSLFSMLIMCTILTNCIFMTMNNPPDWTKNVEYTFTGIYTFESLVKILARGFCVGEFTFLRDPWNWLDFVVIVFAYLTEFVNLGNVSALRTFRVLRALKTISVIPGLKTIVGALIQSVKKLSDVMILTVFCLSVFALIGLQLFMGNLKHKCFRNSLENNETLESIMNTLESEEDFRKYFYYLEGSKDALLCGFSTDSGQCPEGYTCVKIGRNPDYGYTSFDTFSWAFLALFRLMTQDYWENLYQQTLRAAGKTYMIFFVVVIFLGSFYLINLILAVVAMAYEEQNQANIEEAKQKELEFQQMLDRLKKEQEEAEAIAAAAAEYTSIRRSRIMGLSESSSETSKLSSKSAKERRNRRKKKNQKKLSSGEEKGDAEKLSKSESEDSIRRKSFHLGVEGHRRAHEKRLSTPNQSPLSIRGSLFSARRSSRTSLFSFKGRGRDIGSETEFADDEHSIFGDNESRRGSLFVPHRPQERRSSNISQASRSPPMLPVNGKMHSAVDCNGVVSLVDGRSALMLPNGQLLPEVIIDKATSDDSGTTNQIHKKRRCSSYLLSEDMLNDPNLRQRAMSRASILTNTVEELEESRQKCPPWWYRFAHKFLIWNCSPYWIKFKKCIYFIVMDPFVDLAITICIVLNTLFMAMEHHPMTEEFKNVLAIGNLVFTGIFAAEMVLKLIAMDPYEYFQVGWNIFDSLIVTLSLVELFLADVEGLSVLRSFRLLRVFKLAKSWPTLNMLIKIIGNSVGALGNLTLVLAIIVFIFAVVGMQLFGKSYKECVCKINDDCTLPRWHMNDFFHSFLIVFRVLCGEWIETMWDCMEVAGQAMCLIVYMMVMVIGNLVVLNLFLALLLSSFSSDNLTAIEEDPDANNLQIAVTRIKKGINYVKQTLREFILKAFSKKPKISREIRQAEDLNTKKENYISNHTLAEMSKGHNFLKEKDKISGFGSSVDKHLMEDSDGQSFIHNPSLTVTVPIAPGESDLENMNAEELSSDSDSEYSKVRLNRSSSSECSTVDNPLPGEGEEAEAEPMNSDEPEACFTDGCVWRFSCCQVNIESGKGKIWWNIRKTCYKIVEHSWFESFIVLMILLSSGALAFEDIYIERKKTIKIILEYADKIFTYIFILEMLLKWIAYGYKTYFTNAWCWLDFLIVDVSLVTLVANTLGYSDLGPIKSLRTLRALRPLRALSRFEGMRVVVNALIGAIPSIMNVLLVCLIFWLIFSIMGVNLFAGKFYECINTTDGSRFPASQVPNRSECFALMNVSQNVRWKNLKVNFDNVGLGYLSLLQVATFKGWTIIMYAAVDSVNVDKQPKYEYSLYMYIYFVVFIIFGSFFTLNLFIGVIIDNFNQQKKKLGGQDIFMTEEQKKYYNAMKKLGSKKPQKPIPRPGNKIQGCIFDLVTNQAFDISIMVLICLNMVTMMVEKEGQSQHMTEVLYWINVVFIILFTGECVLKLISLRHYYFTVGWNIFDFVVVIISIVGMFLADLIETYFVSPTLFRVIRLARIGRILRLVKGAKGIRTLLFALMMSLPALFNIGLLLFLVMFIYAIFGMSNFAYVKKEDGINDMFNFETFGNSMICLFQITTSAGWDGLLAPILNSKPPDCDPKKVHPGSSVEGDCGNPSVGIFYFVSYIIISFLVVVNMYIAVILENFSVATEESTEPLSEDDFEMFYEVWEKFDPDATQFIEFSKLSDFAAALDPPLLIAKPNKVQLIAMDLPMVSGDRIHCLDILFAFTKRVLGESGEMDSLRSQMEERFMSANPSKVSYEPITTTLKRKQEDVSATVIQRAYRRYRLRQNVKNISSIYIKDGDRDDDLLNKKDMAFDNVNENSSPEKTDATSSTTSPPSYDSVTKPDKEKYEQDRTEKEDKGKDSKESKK

- IC50 (Nav 1.7; in-vitro Nav 1.7 PX data): 38.7 nM
Compound: COc1cc(-c2ccc(C)c(Cl)c2)c(C#N)cc1-c1nccc2cc(S(=O)(=O)Nc3ccncn3)ccc12 [Example 159, 1-(3′-chloro-2-cyano-5-methoxy-4′-methyl-4-biphenylyl)-N-4-pyrimidinyl-6-isoquinolinesulfonamide]
- IC50 (Nav 1.5; in-vitro Nav 1.5 PX data): > 30000 nM

- IC50 (Nav 1.7; PatchXpress (PX), in vitro): 28.8 nM
Compound: COc1cc(-c2ccc(F)c(C)c2)c(C#N)cc1-c1nccc2cc(S(=O)(=O)Nc3ccon3)ccc12 [Example 85, 1-(2-cyano-4′-fluoro-5-methoxy-3′-methyl-4-biphenylyl)-N-3-isoxazolyl-6-isoquinolinesulfonamide]
- IC50 (Nav 1.5; PatchXpress (PX), in vitro): > 10000 nM

- IC50 (Nav 1.7; PatchXpress (PX), in vitro): 88 nM
Compound: COc1cc(-c2ccccc2C)c(C#N)cc1-c1nccc2cc(S(=O)(=O)Nc3ccon3)ccc12 [Example 79, 1-(2-cyano-5-methoxy-2′-methyl-4-biphenylyl)-N-3-isoxazolyl-6-isoquinolinesulfonamide]
- IC50 (Nav 1.5; PatchXpress (PX), in vitro): > 10000 nM

- IC50 (Nav 1.7; in-vitro PX): 424 nM
Compound: COc1nc(N2CCC(F)(F)CC2)c(Cl)cc1-c1nccc2cc(S(=O)(=O)Nc3nncs3)ccc12 [Example 244, 1-(5-chloro-6-(4,4-difluoro-1-piperidinyl)-2-methoxy-3-pyridinyl)-N-1,3,4-thiadiazol-2-yl-6-isoquinolinesulfonamide]
- IC50 (Nav 1.5; in-vitro PX): > 30000 nM

- IC50 (Nav 1.7; in-vitro PX data): 39.5 nM
Compound: COc1cc(-c2cccc(C)c2)c(C#N)cc1-c1nccc2cc(S(=O)(=O)Nc3ccon3)ccc12 [Example 112, 1-(2-cyano-5-methoxy-3′-methyl-4-biphenylyl)-N-3-isoxazolyl-6-isoquinolinesulfonamide]
- IC50 (Nav 1.5; in-vitro PX data): > 10000 nM

- IC50 (Nav 1.7; in-vitro PX): 69.1 nM
Compound: COc1cc(-c2cccc(F)c2)c(C#N)cc1-c1ncnc2cc(S(=O)(=O)Nc3nncs3)ccc12 [Example 241, 4-(2-cyano-3′-fluoro-5-methoxy-4-biphenylyl)-N-1,3,4-thiadiazol-2-yl-7-quinazolinesulfonamide]
- IC50 (Nav 1.5; in-vitro PX): > 10000 nM

- IC50 (Nav 1.7; in-vitro PX data): 497 nM
Compound: COc1cc(NS(=O)(=O)c2ccc3c(-c4ccc(-c5cc(F)cc(F)c5)cc4OC)nccc3c2)ncn1 [Example 125, 1-(3′,5′-difluoro-3-methoxy-4-biphenylyl)-N-(6-methoxy-4-pyrimidinyl)-6-isoquinolinesulfonamide]
- IC50 (Nav 1.5; in-vitro PX data): > 10000 nM

- IC50 (Nav 1.7; in-vitro PX): 22.9 nM
Compound: COc1cc(-c2ccc(C)c(F)c2)c(C#N)cc1-c1nccc2cc(S(=O)(=O)Nc3nncs3)ccc12 [Example 218, 1-(2-cyano-3′-fluoro-5-methoxy-4′-methyl-4-biphenylyl)-N-1,3,4-thiadiazol-2-yl-6-isoquinolinesulfonamide]
- IC50 (Nav 1.5; in-vitro PX): > 10000 nM

- IC50 (Nav 1.7; in-vitro PX data): 428 nM
Compound: COc1cc(-c2cc(F)cc(F)c2)ccc1-c1nccc2cc(S(=O)(=O)Nc3cnsn3)ccc12 [Example 129, 1-(3′,5′-difluoro-3-methoxy-4-biphenylyl)-N-1,2,5-thiadiazol-3-yl-6-isoquinolinesulfonamide]
- IC50 (Nav 1.5; in-vitro PX data): > 10000 nM

Compound: 1-(2-cyano-5-methoxy-2′-methyl-4-biphenylyl)-N-1,3,4-thiadiazol-2-yl-6-isoquinolinesulfonamide [Example 220]
- IC50 (Nav 1.7; in-vitro PX): 40.1 nM
- IC50 (Nav 1.5; in-vitro PX): > 10000 nM

- IC50 (Nav 1.7; in-vitro PX): 328 nM
Compound: COc1cc(-c2cc(F)cnc2OC)ccc1-c1ccnc2cc(S(=O)(=O)Nc3nncs3)ccc12 [Example 209, 4-(4-(5-fluoro-2-methoxy-3-pyridinyl)-2-methoxyphenyl)-N-1,3,4-thiadiazol-2-yl-7-quinolinesulfonamide]
- IC50 (Nav 1.5; in-vitro PX): > 10000 nM

- IC50 (Nav 1.7; in-vitro PX data): 251 nM
Compound: COc1cc(-c2cc(F)cc(F)c2)ccc1-c1nccc2cc(S(=O)(=O)Nc3cccnn3)ccc12 [Example 138, 1-(3′,5′-difluoro-3-methoxy-4-biphenylyl)-N-3-pyridazinyl-6-isoquinolinesulfonamide]
- IC50 (Nav 1.5; in-vitro PX data): > 10000 nM

- IC50 (Nav 1.7; in-vitro PX): 47.1 nM
Compound: COc1cc(-c2cc(F)cc(F)c2)c(Cl)cc1-c1nn(C)c(=O)c2cc(S(=O)(=O)Nc3nncs3)ccc12 [Example 235, 1-(2-chloro-3′,5′-difluoro-5-methoxy-4-biphenylyl)-3-methyl-4-oxo-N-1,3,4-thiadiazol-2-yl-3,4-dihydro-6-phthalazinesulfonamide]
- IC50 (Nav 1.5; in-vitro PX): > 10000 nM

- IC50 (Nav 1.7; PatchXpress (PX), in vitro): 33 nM
Compound: COc1cc(-c2ccc(C)c(Cl)c2)c(C#N)cc1-c1nccc2cc(S(=O)(=O)Nc3ccon3)ccc12 [Example 78, 1-(3′-chloro-2-cyano-5-methoxy-4′-methyl-4-biphenylyl)-N-3-isoxazolyl-6-isoquinolinesulfonamide]
- IC50 (Nav 1.5; PatchXpress (PX), in vitro): > 10000 nM

- IC50 (Nav 1.7; in-vitro PX data): 13.5 nM
Compound: COc1cc(-c2cccc(C(F)(F)F)c2)c(F)cc1-c1nccc2cc(S(=O)(=O)Nc3ccon3)ccc12 [Example 115, 1-(2-fluoro-5-methoxy-3′-(trifluoromethyl)-4-biphenylyl)-N-3-isoxazolyl-6-isoquinolinesulfonamide]
- IC50 (Nav 1.5; in-vitro PX data): > 10000 nM

- IC50 (Nav 1.7; in-vitro PX (PatchXpress) data): 520 nM
Compound: COc1cc(Oc2cc(C)cc(C)c2)ccc1-c1nccc2cc(S(=O)(=O)Nc3ccncn3)ccc12 [Example 180, 1-(4-(3,5-dimethylphenoxy)-2-methoxyphenyl)-N-4-pyrimidinyl-6-isoquinolinesulfonamide]
- IC50 (Nav 1.5; in-vitro PX (PatchXpress) data): > 10000 nM

- IC50 (Nav 1.7; in-vitro PX data): 84.1 nM
Compound: COc1cc(-c2cccc(F)c2)c(Cl)cc1-c1nncc2cc(S(=O)(=O)Nc3ccon3)ccc12 [Example 10, 1-(2-CHLORO-3′-FLUORO-5-METHOXY-[1,1′-BIPHENYL]-4-YL)-N-(ISOXAZOL-3-YL)PHTHALAZINE-6-SULFONAMIDE]
- IC50 (Nav 1.5; in-vitro PX data): > 10000 nM

Compound: COc1cc(-c2cccc(F)c2)c(Cl)cc1-c1nccc2cc(S(=O)(=O)Nc3ncon3)ccc12 [Example 7, 1-(2-CHLORO-3′-FLUORO-5-METHOXY-[1,1′-BIPHENYL]-4-YL)-N-(1,2,4-OXADIAZOL-3-YL)ISOQUINOLINE-6-SULFONAMIDE 2,2,2-TRIFLUOROACETATE]
- IC50 (Nav 1.7): 47.7 nM
- IC50 (Nav 1.5; in-vitro PX data): > 10000 nM

Compound: COc1cc(-c2cccc(F)c2)c(Cl)cc1-c1n[nH]c(=O)c2cc(S(=O)(=O)Nc3nncs3)ccc12 [Example 14, 1-(2-CHLORO-3′-FLUORO-5-METHOXY-[1,1′-BIPHENYL]-4-YL)-4-OXO-N-(1,3,4-THIADIAZOL-2-YL)-3,4-DIHYDROPHTHALAZINE-6-SULFONAMIDE]
- IC50 (Nav 1.7): 131 nM
- IC50 (Nav 1.5; in-vitro PX (PatchXpress) data): > 10000 nM

- IC50 (Nav 1.7; in-vitro PX): 140 nM
Compound: N#CCOc1cc(-c2cccc(F)c2)ccc1-c1nccc2cc(S(=O)(=O)Nc3ccon3)ccc12 [Example 231, 1-(3-(cyanomethoxy)-3′-fluoro-4-biphenylyl)-N-3-isoxazolyl-6-isoquinolinesulfonamide]
- IC50 (Nav 1.5; in-vitro PX): > 30000 nM

- IC50 (Nav 1.7; in-vitro PX): 11.6 nM
Compound: COc1cc(-c2cccc(C(F)(F)F)c2)c(C#N)cc1-c1ncnc2cc(S(=O)(=O)Nc3nncs3)ccc12 [Example 226, 4-(2-cyano-5-methoxy-3′-(trifluoromethyl)-4-biphenylyl)-N-1,3,4-thiadiazol-2-yl-7-quinazolinesulfonamide]
- IC50 (Nav 1.5; in-vitro PX): > 10000 nM

- IC50 (Nav 1.7; in-vitro Nav 1.7 PX data): 13.8 nM
Compound: COc1cc(-c2cc(C)cc(Cl)c2)c(C#N)cc1-c1nccc2cc(S(=O)(=O)Nc3ccncn3)ccc12 [Example 160, 1-(3′-chloro-2-cyano-5-methoxy-5′-methyl-4-biphenylyl)-N-4-pyrimidinyl-6-isoquinolinesulfonamide]
- IC50 (Nav 1.5; in-vitro Nav 1.5 PX data): 18300 nM

- IC50 (Nav 1.7; in-vitro PX (PatchXpress) data): 243 nM
Compound: COc1cc(Oc2cc(C)ccc2F)ccc1-c1nccc2cc(S(=O)(=O)Nc3nncs3)ccc12 [Example 190, 1-(4-(2-fluoro-5-methylphenoxy)-2-methoxyphenyl)-N-1,3,4-thiadiazol-2-yl-6-isoquinolinesulfonamide]
- IC50 (Nav 1.5; in-vitro PX (PatchXpress) data): > 10000 nM

- IC50 (Nav 1.7; in-vitro Nav 1.7 PX data): 92.1 nM
Compound: COc1cc(-c2ccc(C)c(F)c2)c(C#N)cc1-c1nccc2cc(S(=O)(=O)Nc3ccncn3)ccc12 [Example 163, 1-(2-cyano-3′-fluoro-5-methoxy-4′-methyl-4-biphenylyl)-N-4-pyrimidinyl-6-isoquinolinesulfonamide]
- IC50 (Nav 1.5; in-vitro Nav 1.5 PX data): > 10000 nM

Compound: COc1cc(-c2cccc(F)c2)c(Cl)cc1-c1nn(C)c(=O)c2cc(S(=O)(=O)Nc3ccon3)ccc12 [Example 21, 1-(2-CHLORO-3′-FLUORO-5-METHOXY-[1,1′-BIPHENYL]-4-YL)-N-(ISOXAZOL-3-YL)-3-METHYL-4-OXO-3,4-DIHYDROPHTHALAZINE-6-SULFONAMIDE]
- IC50 (Nav 1.7): 42.4 nM
- IC50 (Nav 1.5; in-vitro PX): > 10000 nM

- IC50 (Nav 1.7; in-vitro Nav 1.7 PX data): 470 nM
Compound: COc1ccc(F)cc1-c1cc(OC)c(-c2nccc3cc(S(=O)(=O)Nc4ccncn4)ccc23)cc1C#N [Example 162, 1-(2-cyano-5′-fluoro-2′,5-dimethoxy-4-biphenylyl)-N-4-pyrimidinyl-6-isoquinolinesulfonamide]
- IC50 (Nav 1.5; in-vitro Nav 1.5 PX data): > 10000 nM

- IC50 (Nav 1.7; PatchXpress (PX), in vitro): 174 nM
Compound: COc1cc(-c2ccccc2)ccc1-c1nccc2cc(S(=O)(=O)Nc3nncs3)ccc12 [Example 50]
- IC50 (Nav 1.5; PatchXpress (PX), in vitro): > 10000 nM

Compound: COc1cc(-c2cccc(C(F)(F)F)c2)ccc1-c1nccc2cc(S(=O)(=O)Nc3ccon3)ccc12 [Example 6, N-(ISOXAZOL-3-YL)-1-(3-METHOXY-3′-(TRIFLUOROMETHYL)-[1,1′-BIPHENYL]-4-YL)ISOQUINOLINE-6-SULFONAMIDE]
- IC50 (Nav 1.7): 78.9 nM
- IC50 (Nav 1.5; in-vitro PX data): > 10000 nM

- IC50 (Nav 1.7; in-vitro PX): 21.8 nM
Compound: COc1cc(-c2cc(C)cc(F)c2)c(C#N)cc1-c1nccc2cc(S(=O)(=O)Nc3nncs3)ccc12 [Example 222, 1-(2-cyano-3′-fluoro-5-methoxy-5′-methyl-4-biphenylyl)-N-1,3,4-thiadiazol-2-yl-6-isoquinolinesulfonamide]
- IC50 (Nav 1.5; in-vitro PX): > 10000 nM

- IC50 (Nav 1.7; PatchXpress (PX), in vitro): 28.2 nM
Compound: COc1cc(-c2ccc(F)c(F)c2)c(C#N)cc1-c1nccc2cc(S(=O)(=O)Nc3ccon3)ccc12 [Example 80, 1-(2-cyano-3′,4′-difluoro-5-methoxy-4-biphenylyl)-N-3-isoxazolyl-6-isoquinolinesulfonamide]
- IC50 (Nav 1.5; PatchXpress (PX), in vitro): > 10000 nM

- IC50 (Nav 1.7; in-vitro Nav 1.7 PX data): 120 nM
Compound: O=S(=O)(Nc1ccon1)c1ccc2c(-c3ccc(-c4cccc(C(F)(F)F)c4)cc3CO)nccc2c1 [Example 146, 1-(3-(hydroxymethyl)-3′-(trifluoromethyl)-4-biphenylyl)-N-3-isoxazolyl-6-isoquinolinesulfonamide]
- IC50 (Nav 1.5; in-vitro Nav 1.5 PX data): > 10000 nM
